{"source": "patent US9359451B2", "about": "“Methods and compositions for treating trauma-hemorrhage using estrogen and derivatives thereof” (THE UAB RESEARCH FOUNDATION, priority 2012, dated 2016)", "key": {"[1]": {"tested_on": "myeloperoxidase (MPO)", "experiment": "Spinal cord injury: neutrophil infiltration, MPO activity and MPO staining", "type": "in vivo, mouse", "conditions": "24 h after SCI; ICI 182,780: co-administered with 17β-estradiol", "protocol": "Mice were anaesthetized using chloral hydrate (400 mg/kg body weight) (Genovese 2006). A longitudinal incision was made on the midline of the back, exposing the paravertebral muscles. These muscles were dissected away exposing T5-T8 vertebrae. The spinal cord was exposed via a four-level T6-T7 laminectomy and SCI was produced by extradural compression using an aneurysm clip with a closing force of 24 g. Following surgery, 1 ml of saline was administered subcutaneously in order to replace the blood volume lost during surgery. During the surgery and recovery from anesthesia, the mice were placed on a warm heating pad and covered with a warm towel. […] Food and water were provided to the mice ad libitum. During this time period, the animals' bladders were manually voided twice a day until the mice were able to regain normal bladder function. In all injured groups, the spinal cord was compressed for 1 min. Sham-injured animals were only subjected to laminectomy. […] In the experiments regarding the motor score, the animals from all the experimental groups were observed and treated daily for 9 days after SCI. At different time points (see FIG. 30), the mice (n=10 from each group for each of the 3 time points) were sacrificed in order to evaluate the various parameters as described below. […] After deparaffinization, endogenous peroxidase was quenched with 0.3% (v/v) hydrogen peroxide in 60% (v/v) methanol for 30 min. […] Non-specific adsorption was minimized by incubating the section in 2% (v/v) normal goat serum in PBS for 20 min. Endogenous biotin or avidin binding sites were blocked by sequential incubation for 15 min with biotin and avidin (DBA), respectively. […] Sections were washed with PBS, and incubated with secondary antibody. Specific labeling was detected with a biotin-conjugated goat anti-rabbit IgG and avidin-biotin peroxidase complex (DBA) and counterstained with nuclear fast red. To verify the binding specificity for nitrotyrosine, iNOS, COX-2, Bax, and Bcl-2, some sections were also incubated with only the primary antibody (no secondary) or with only the secondary antibody (no primary). […] Immunocytochemistry photographs (n=5) were assessed by densitometry as previously described (Shea 1994) by using Imaging Densitometer (AxioVision, Zeiss, Milan, Italy) and a computer program. Myeloperoxidase (MPO) activity, an indicator of PMN accumulation, was determined as previously described (Mullane 1985) 24 h after SCI. […] The rate of change in absorbance was measured spectrophotometrically at 650 nm. MPO activity was defined as the quantity of enzyme degrading 1 μmol of peroxide per minute at 37° C. and was expressed in milliunits/g of wet tissue."}, "[2]": {"tested_on": "TNF-α, IL-1β, IL-6 and MCP-1 mRNA", "experiment": "Spinal cord injury: quantitative real time PCR of cytokines and chemokines", "type": "in vivo, mouse", "conditions": "24 h after SCI; ICI 182,780: co-administered with 17β-estradiol", "protocol": "Mice were anaesthetized using chloral hydrate (400 mg/kg body weight) (Genovese 2006). A longitudinal incision was made on the midline of the back, exposing the paravertebral muscles. These muscles were dissected away exposing T5-T8 vertebrae. The spinal cord was exposed via a four-level T6-T7 laminectomy and SCI was produced by extradural compression using an aneurysm clip with a closing force of 24 g. Following surgery, 1 ml of saline was administered subcutaneously in order to replace the blood volume lost during surgery. During the surgery and recovery from anesthesia, the mice were placed on a warm heating pad and covered with a warm towel. The mice were singly housed in a temperature-controlled room at 27° C. and survival was measured over a period of 10 days. Food and water were provided to the mice ad libitum. During this time period, the animals' bladders were manually voided twice a day until the mice were able to regain normal bladder function. In all injured groups, the spinal cord was compressed for 1 min. Sham-injured animals were only subjected to laminectomy.\nIn the experiments regarding the motor score, the animals from all the experimental groups were observed and treated daily for 9 days after SCI. At different time points (see FIG. 30), the mice (n=10 from each group for each of the 3 time points) were sacrificed in order to evaluate the various parameters as described below.\nA segment of spinal cord (320±124 mg) encompassing lesion epicentre was homogenized in a solution of Tri-reagent (Sigma®, Germany) according to the manufacturer's instructions. Total cellular RNA was isolated from the aqueous phase then the levels of […], TNF-α, MCP-1, IL-6 gene products were determined by Real Time PCR. The amount of each PCR product of gene target was normalized to Glyceraldehyde-3-phosphate dehydrogenase (GAPDH). The RNA extracted from spinal cord of individual mice was reverse transcripted into first strand cDNA with Random Hexamers and purified Avian Myeloblastosis Virus Reverse Transcriptase (Takara, Japan) in […] of reaction after a DNAse treatment and stored at −80° C. until use. Primers pair for each cytokine was designed using the software Oligo (Molecular Biology Insights, Cascade, Colo., USA). The PCR reactions were performed using the following cycle conditions: a denaturation step for 15 minutes at 95° C. and 40 cycles of 30 seconds denaturation at 94° C., 30 seconds annealing (TNF-á 61° C., IL-6 54° C., IL-1β 61° C., MCP-1 54° C., GADPH 56° C.), 15 sec at 72° C. and 7 minutes of final extension at 72° C. The PCR products were visualized by electrophoresis on agarose gel 2% stained by ethidium bromide. The purified PCR products were cloned into a plasmid vector, transformed into the E. coli TOP 10 (Invitrogen) and purified with Turbo Kit (QBIOgene, CA, USA). The recombinant plasmid was linearized upstream the target sequence using the restriction endonuclease PmeI (Fermentas, Canada). Tenfold dilutions of recombinant plasmid from 10^9 copies down to 10^1 copies were used as standards. The real time PCR assay was developed and evaluated on the Rotor-Gene 3000 system (Corbett Research, Australia). Reaction was carried out in a final volume of 25 μl containing 1× of SYBR PREMIX Ex Taq Takara, 200 nM each forward and reverse primers, 1× of Rox References Dye and 2 μl of cDNA. Cycling parameters were the following: 10 minutes at 95° C. for polymerase activation followed by 40 cycles of 15 seconds at 95° C., 15 seconds annealing (TNF-α 61° C., […], IL-6 54° C., IL-1β 61° C., MCP-1 54° C., GADPH 56° C.) 20 sec at 72° C. The signal was acquired on the FAM channel (multichannel machine) (source, 470 nm; detector, 510 nm; gain set to 5) with the fluorescence reading taken at the end of each 72° C. step. A melt step was added after a cycling run performed with the same parameters of the SYBR Green assay. […]"}}, "note": "“Also recorded” adds a separate entry of the source.", "data": [{"smiles": "C[C@]12CC[C@@H]3c4ccc(O)cc4CC[C@H]3[C@@H]1CC[C@@H]2O", "note": "[17β-estradiol]", "values": [{"measurement": "MPO activity in spinal cord", "setting": "[1]", "result": "significantly attenuated; also recorded: significantly reduced the SCI-induced increase in MPO activity"}, {"measurement": "staining for MPO", "setting": "[1]", "result": "visibly and significantly reduced"}, {"measurement": "IL-1β mRNA levels in spinal cord", "setting": "[2]", "result": "significantly reduced"}, {"measurement": "IL-6 mRNA levels in spinal cord", "setting": "[2]", "result": "significantly reduced"}, {"measurement": "MCP-1 mRNA levels in spinal cord", "setting": "[2]", "result": "significantly reduced"}, {"measurement": "TNF-α mRNA levels in spinal cord", "setting": "[2]", "result": "significantly reduced"}]}, {"smiles": "C[C@]12CC[C@@H]3c4ccc(O)cc4C[C@@H](CCCCCCCCC[S+]([O-])CCCC(F)(F)C(F)(F)F)[C@H]3[C@@H]1CC[C@@H]2O", "note": "(stereo partly drawn) [ICI 182,780]", "values": [{"measurement": "MPO activity in spinal cord", "setting": "[1]", "result": "significantly blocked the effect of the 17β-estradiol"}, {"measurement": "staining for MPO", "setting": "[1]", "result": "significantly blocked the effect of the 17β-estradiol"}, {"measurement": "IL-1β mRNA levels in spinal cord", "setting": "[2]", "result": "significantly blocked the effect of the 17β-estradiol"}, {"measurement": "IL-6 mRNA levels in spinal cord", "setting": "[2]", "result": "significantly blocked the effect of the 17β-estradiol"}, {"measurement": "MCP-1 mRNA levels in spinal cord", "setting": "[2]", "result": "significantly blocked the effect of the 17β-estradiol"}, {"measurement": "TNF-α mRNA levels in spinal cord", "setting": "[2]", "result": "significantly blocked the effect of the 17β-estradiol"}]}]}
